Experimental data: US7049312B1, “Benzothiazinone and benzoxazinone compounds” (Abbott GmbH & Co. KG, priority 1999, dated 2006)

Structure (SMILES)	melting point
O=C1Nc2ncccc2OC1=Cc1ccccc1 [Example 297, 2-(Phenylmethylene)-2H-pyrido[3,2-b][1,4]oxazin-3(4H)-one]	223 to 225 °C
ON=C1Nc2ccccc2SC1=Cc1ccc[nH]1 [Example 273, 3-Hydroxyimino-2-[(pyrrol-2-yl)methylene]-2H-1,4-benzothiazine]	204 to 205 °C
CC(=O)OCCCCn1cc(C=C2Sc3ccccc3NC2=O)c2cccnc21 [Example 131, 2-{[1-(4-Acetoxybutyl)-7-azaindol-3-yl]methylene}-2H-1,4-benzothiazine-3(4H)-one]	158 to 160 °C
CC(=O)ON=C1Nc2ccccc2SC1=Cc1ccc[nH]1 [Example 276, 3-Acetyloxyimino-2-[(pyrrol-2-yl)methylene]-2H-1,4-benzothiazine]	182 to 185 °C
O=C1Nc2ccccc2S(=O)(=O)C1=Cc1c[nH]c2ccccc12 [Example 280, 1,1-Dioxo-2-[(indol-3-yl)methylene]-2H-1,4-benzothiazin-3(4H)-one]	318 to 320 °C
ON=C1Nc2ccccc2OC1=Cc1ccc[nH]1 [Example 278, 3-Hydroxyimino-2-[(pyrrol-2-yl)methylene]-2H-1,4-benzoxazine]	192 to 194 °C
COc1ccc(NC=C2C(=O)Nc3ccccc3S2(=O)=O)cc1 [Example 285, 1,1 Dioxo-2-[(4-methoxyphenylamino)methylene]-2H-1,4-benzothiazin-3(4H)-one]	250 to 251 °C

Further lines, results first:

melting point	Structure (SMILES)
188 to 189 °C	O=C(ON=C1Nc2ccccc2SC1=Cc1ccc[nH]1)c1ccccc1 [Example 277, 3-Benzoyloxyimino-2-[(pyrrol-2-yl)methylene]-2H-1,4-benzothiazine]
253 to 256 °C	S=C1Nc2ccccc2SC1=Cc1c[nH]c2ccccc12 [Example 268, 2-[(Indol-3-yl)methylene]-2H-1,4-benzothiazine-3(4H)-thione]
241 to 243 °C	S=C1Nc2ccccc2OC1=Cc1ccc[nH]1 [Example 271, 2-[(Pyrrol-2-yl)methylene]-2H-1,4-benzoxazin-3 (4H)-thione]
287 to 290 °C	S=C1Nc2ccccc2SC1=Cc1c[nH]c2ncccc12 [Example 269, 2-[(7-azaindol-3-yl)methylene]-2H-1,4-benzothiazine-3(4H)-thione]
275 to 277 °C	S=C1Nc2ccccc2OC1=Cc1c[nH]c2ccccc12 [Example 272, 2-[(indol-3-yl)methylene]-2H-1,4-benzoxazin-3(4H)-thione]
205 to 206 °C	S=C1Nc2ccccc2SC1=Cc1ccc[nH]1 [Example 270, 2-[(pyrrol-2-yl)methylene]-2H-1,4-benzothiazine-3(4H)-thione]
